Reference: publication PMC8426238, “Synthesis and preclinical evaluation of [^11C]MTP38 as a novel PET ligand for phosphodiesterase 7 in the brain” (European Journal of Nuclear Medicine and Molecular Imaging, 2021)
Several values for one entry are separate records, joined by “and”; a condition that tells them apart may be missing. Equal entries are not always repeated.

Experiments:
Histamine H1 = biological target: T1, Histamine H1 (Homo sapiens, UniProt P35367); assay: off-target screen panel; assay type: binding; conditions: Human recombinant, [^3H]Pyrilamine
T1 construct: purchased Eurofins Panlabs Discovery Services (Taiwan)
T1 sequence (P35367 whole entry): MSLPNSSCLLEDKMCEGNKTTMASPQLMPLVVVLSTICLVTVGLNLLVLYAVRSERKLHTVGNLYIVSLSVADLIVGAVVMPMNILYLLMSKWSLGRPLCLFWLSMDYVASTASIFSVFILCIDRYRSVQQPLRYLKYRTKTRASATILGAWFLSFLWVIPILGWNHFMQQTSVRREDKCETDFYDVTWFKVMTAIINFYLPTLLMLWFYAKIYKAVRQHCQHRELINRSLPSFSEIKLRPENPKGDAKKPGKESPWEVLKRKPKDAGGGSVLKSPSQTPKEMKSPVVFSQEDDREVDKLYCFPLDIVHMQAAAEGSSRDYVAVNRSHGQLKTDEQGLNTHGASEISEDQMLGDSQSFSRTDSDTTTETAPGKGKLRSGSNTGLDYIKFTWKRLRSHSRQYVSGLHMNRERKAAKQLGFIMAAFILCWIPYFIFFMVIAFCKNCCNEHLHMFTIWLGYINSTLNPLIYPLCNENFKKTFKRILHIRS

PDE6 = biological target: T2, PDE6 (Bos taurus, UniProt P11541+P23439); assay: PDE isozyme inhibition screen panel (Eurofins Panlabs); assay type: biochemical; conditions: 1 μM of MTP38; bovine retinal rod outer segments; read-out: Percent inhibition
T2 construct: The enzyme source was bovine retinal rod outer segments for PDE6; tissue Eurofins Panlabs Discovery Services (Taiwan); host or cells: bovine retinal rod outer segments
Experimental: (§1) In vitro inhibitory effects of MTP38 on 12 PDE isozymes (PDE1A, 2A, 3A, 4B1, 5A, 6, 7A, 7B, 8A1, 9A2, 10A2, and 11A4) were determined using a commercial screen panel at Eurofins Panlabs Discovery Services (Taiwan). The enzyme source was bovine retinal rod outer segments for PDE6 or human recombinants for the others. The inhibition percentage at 1 μM or half-maximal inhibitory concentration (IC50) value was calculated. All assays were conducted in duplicate. For IC50 determination, three independent runs were performed.

PDE7A = biological target: T3, PDE7A (Homo sapiens, UniProt Q13946); assay: as above; assay type: biochemical; conditions: human recombinant; geometric mean of three independent experiments
T3 construct: purchased Eurofins Panlabs Discovery Services (Taiwan)
T3 sequence (Q13946 whole entry): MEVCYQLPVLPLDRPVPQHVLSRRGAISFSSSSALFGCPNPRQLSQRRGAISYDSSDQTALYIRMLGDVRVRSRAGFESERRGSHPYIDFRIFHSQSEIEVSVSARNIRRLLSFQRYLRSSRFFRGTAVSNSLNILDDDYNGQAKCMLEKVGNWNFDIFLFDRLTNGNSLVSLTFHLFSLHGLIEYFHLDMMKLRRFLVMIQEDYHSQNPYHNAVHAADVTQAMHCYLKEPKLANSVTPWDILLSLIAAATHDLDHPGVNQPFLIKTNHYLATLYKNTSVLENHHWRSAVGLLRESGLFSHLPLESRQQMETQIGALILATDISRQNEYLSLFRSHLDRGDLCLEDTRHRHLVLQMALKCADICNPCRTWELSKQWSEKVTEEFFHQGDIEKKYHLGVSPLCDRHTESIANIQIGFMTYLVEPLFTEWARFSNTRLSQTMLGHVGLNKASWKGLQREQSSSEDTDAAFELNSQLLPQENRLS
Experimental: as §1

PDE11A4 = biological target: T4, PDE11A4 (Homo sapiens, UniProt Q9HCR9); assay: as above; assay type: biochemical; conditions: 1 μM of MTP38; human recombinant; read-out: Percent inhibition
T4 construct: purchased Eurofins Panlabs Discovery Services (Taiwan)
Experimental: as §1

PDE3A = biological target: T5, PDE3A (Homo sapiens, UniProt Q14432); assay: as above; assay type: biochemical; conditions: 1 μM of MTP38; human recombinant; read-out: Percent inhibition
T5 construct: purchased Eurofins Panlabs Discovery Services (Taiwan)
Experimental: as §1

PDE8A1 = biological target: T6, PDE8A1 (Homo sapiens, UniProt O60658); assay: as above; assay type: biochemical; conditions: 1 μM of MTP38; human recombinant; read-out: Percent inhibition
T6 construct: purchased Eurofins Panlabs Discovery Services (Taiwan)
Experimental: as §1

PDE9A2 = biological target: T7, PDE9A2 (Homo sapiens, UniProt O76083); assay: as above; assay type: biochemical; conditions: 1 μM of MTP38; human recombinant; read-out: Percent inhibition
T7 construct: purchased Eurofins Panlabs Discovery Services (Taiwan)
T7 sequence (O76083 1-533 isoform O76083-2): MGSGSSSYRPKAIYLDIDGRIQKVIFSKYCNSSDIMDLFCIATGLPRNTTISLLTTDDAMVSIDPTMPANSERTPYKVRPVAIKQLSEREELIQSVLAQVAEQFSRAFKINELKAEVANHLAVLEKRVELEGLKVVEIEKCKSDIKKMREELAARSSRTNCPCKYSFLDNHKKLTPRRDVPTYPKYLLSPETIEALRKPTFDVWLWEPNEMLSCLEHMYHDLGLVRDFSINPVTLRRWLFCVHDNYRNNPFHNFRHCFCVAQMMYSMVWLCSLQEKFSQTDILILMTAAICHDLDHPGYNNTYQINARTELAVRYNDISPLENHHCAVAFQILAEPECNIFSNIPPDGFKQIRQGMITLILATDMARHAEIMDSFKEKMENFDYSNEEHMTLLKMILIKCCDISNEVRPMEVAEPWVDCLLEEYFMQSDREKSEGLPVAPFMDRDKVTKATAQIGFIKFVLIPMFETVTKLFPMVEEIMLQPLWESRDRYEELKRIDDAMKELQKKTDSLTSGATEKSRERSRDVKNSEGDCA
Experimental: as §1

PDE7B = biological target: T8, PDE7B (Homo sapiens, UniProt Q9NP56); assay: as above; assay type: biochemical
T8 construct: purchased Eurofins Panlabs Discovery Services (Taiwan)
T8 sequence (Q9NP56 whole entry): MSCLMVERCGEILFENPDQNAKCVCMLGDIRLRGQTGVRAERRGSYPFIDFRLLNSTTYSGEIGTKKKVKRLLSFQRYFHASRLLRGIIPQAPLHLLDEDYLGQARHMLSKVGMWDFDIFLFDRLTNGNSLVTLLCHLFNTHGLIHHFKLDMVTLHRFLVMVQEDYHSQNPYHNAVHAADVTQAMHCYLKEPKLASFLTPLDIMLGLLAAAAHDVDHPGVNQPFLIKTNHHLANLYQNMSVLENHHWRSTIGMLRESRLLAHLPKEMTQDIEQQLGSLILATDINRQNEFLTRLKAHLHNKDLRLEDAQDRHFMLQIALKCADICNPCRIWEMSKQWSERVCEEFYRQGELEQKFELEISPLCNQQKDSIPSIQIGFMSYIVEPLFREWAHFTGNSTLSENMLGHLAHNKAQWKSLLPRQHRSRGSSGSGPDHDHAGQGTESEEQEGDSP
Experimental: as §1

PDE5A = biological target: T9, PDE5A (Homo sapiens, UniProt O76074); assay: as above; assay type: biochemical; conditions: 1 μM of MTP38; human recombinant; read-out: Percent inhibition
T9 construct: purchased Eurofins Panlabs Discovery Services (Taiwan)
Experimental: as §1

PDE2A = biological target: T10, PDE2A (Homo sapiens, UniProt O00408); assay: as above; assay type: biochemical; conditions: human recombinant; geometric mean of three independent experiments
T10 construct: purchased Eurofins Panlabs Discovery Services (Taiwan)
T10 sequence (O00408 whole entry): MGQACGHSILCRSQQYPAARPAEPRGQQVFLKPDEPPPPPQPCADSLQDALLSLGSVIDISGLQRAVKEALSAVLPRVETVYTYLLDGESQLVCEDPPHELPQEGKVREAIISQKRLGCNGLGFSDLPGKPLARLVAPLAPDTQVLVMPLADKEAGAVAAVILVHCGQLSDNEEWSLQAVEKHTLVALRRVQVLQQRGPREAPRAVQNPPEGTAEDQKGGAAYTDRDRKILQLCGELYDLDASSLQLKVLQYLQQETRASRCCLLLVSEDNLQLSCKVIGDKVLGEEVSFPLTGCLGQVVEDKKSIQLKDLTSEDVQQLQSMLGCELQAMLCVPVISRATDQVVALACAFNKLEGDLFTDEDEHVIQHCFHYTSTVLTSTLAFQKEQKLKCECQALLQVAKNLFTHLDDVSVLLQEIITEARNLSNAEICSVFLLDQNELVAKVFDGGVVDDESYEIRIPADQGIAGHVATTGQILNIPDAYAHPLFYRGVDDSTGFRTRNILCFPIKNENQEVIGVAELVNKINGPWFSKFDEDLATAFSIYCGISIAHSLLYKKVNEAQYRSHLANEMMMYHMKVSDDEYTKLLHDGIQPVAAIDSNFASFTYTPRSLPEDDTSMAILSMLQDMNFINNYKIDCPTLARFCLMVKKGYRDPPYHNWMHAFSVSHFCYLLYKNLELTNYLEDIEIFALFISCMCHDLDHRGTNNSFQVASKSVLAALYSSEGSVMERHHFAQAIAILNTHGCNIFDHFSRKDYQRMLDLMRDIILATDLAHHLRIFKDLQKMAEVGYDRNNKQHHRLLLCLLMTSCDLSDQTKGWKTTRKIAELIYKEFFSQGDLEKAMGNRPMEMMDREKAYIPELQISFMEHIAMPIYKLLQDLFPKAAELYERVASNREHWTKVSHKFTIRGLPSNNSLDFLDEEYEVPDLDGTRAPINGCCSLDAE
Experimental: as §1

PDE1A = biological target: T11, PDE1A (Homo sapiens, UniProt P54750); assay: as above; assay type: biochemical; conditions: 1 μM of MTP38; human recombinant; read-out: Percent inhibition
T11 construct: purchased Eurofins Panlabs Discovery Services (Taiwan)
T11 sequence (P54750 whole entry): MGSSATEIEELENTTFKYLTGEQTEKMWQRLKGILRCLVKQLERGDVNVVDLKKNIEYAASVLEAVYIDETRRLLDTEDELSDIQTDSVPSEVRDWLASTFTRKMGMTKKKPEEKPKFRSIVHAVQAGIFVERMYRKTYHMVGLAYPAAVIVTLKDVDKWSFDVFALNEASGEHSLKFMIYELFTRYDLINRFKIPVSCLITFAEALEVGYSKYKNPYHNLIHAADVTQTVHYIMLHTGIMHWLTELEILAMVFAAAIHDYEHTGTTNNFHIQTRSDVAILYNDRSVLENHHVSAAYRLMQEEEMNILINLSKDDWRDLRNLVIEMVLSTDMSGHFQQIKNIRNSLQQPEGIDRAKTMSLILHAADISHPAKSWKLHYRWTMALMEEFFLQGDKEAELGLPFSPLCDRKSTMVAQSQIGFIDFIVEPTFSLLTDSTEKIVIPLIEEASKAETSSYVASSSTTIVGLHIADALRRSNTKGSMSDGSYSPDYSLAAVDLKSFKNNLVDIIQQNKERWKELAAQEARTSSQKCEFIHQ
Experimental: as §1

Melatonin MT1 = biological target: T12, Melatonin MT1 (Homo sapiens, UniProt P48039); assay: off-target screen panel; assay type: binding; conditions: Human recombinant, [^125I]2-Iodomelatonin
T12 construct: purchased Eurofins Panlabs Discovery Services (Taiwan)

Phorbol Ester = assay: off-target screen panel; assay type: binding; conditions: Mouse brain, [^3H]PDBu
Potassium Channel [KATP] = assay: off-target screen panel; assay type: binding; conditions: Hamster pancreatic HIT-T15 beta cells, [^3H]Glyburide
Adrenergic α1D = biological target: T13, Adrenergic α1D (Homo sapiens, UniProt P25100); assay: off-target screen panel; assay type: binding; conditions: Human recombinant, [^3H]Prazosin
T13 construct: purchased Eurofins Panlabs Discovery Services (Taiwan)
T13 sequence (P25100 whole entry): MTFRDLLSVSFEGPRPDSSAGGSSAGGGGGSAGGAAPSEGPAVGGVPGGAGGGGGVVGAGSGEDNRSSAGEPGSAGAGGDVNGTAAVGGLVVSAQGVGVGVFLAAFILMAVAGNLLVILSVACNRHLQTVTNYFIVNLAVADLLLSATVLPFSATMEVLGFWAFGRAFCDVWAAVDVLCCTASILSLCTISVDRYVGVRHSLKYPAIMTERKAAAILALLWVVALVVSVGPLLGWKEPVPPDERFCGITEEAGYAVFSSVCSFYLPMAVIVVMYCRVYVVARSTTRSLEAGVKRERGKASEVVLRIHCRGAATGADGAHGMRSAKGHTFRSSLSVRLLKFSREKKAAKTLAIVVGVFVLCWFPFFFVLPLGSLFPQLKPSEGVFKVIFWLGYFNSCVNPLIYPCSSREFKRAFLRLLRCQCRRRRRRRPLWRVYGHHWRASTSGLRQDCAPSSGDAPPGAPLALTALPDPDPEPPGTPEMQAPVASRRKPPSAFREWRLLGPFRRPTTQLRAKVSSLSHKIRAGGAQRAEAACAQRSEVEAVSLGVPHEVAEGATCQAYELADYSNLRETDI

Sodium Channel, Site 2 = assay: off-target screen panel; assay type: binding; conditions: Rat brain, [^3H]Batrachotoxinin
Muscarinic M1 = biological target: T14, Muscarinic M1 (Homo sapiens, UniProt P11229); assay: off-target screen panel; assay type: binding; conditions: Human recombinant, [^3H]N-Methylscopolamine
T14 construct: purchased Eurofins Panlabs Discovery Services (Taiwan)

Dopamine D1 = biological target: T15, Dopamine D1 (Homo sapiens, UniProt P21728); assay: off-target screen panel; assay type: binding; conditions: Human recombinant, [^3H]SCH-23390
T15 construct: purchased Eurofins Panlabs Discovery Services (Taiwan)

Estrogen ERα = biological target: T16, Estrogen ERα (Homo sapiens, UniProt P03372); assay: off-target screen panel; assay type: binding; conditions: Human recombinant, [^3H]Estradiol
T16 construct: purchased Eurofins Panlabs Discovery Services (Taiwan)

Opiate μ (OP3, MOP) = biological target: T17, Opiate μ (OP3, MOP) (Homo sapiens, UniProt P35372); assay: off-target screen panel; assay type: binding; conditions: Human recombinant, [^3H]Diprenorphine
T17 construct: purchased Eurofins Panlabs Discovery Services (Taiwan)
T17 sequence (P35372 whole entry): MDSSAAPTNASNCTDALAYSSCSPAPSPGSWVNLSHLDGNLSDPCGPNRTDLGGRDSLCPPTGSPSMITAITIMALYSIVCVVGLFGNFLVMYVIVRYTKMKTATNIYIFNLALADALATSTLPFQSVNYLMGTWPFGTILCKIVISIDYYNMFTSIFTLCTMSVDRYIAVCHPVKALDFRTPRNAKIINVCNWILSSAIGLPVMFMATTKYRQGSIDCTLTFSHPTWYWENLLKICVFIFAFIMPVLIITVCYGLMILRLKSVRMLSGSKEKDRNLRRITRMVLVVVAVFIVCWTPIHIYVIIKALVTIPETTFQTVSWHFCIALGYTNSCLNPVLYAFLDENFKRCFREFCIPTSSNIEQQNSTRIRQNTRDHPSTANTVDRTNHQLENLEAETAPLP

[1] = biological target: T18, Leukotriene, Cysteinyl CysLT1 (Homo sapiens, UniProt Q9Y271); assay: off-target screen panel; assay type: binding; conditions: Human recombinant, [^3H]LTD4
T18 construct: purchased Eurofins Panlabs Discovery Services (Taiwan)

hERG potassium channel = biological target: T19, hERG potassium channel (Homo sapiens, UniProt Q12809); assay: off-target screen panel; assay type: binding; conditions: human recombinant hERG potassium channel, probe [^3H]Astemizole
T19 construct: purchased Eurofins Panlabs Discovery Services (Taiwan)

GABAA, Muscimol, Central = assay: off-target screen panel; assay type: binding; conditions: Rat brain (minus cerebellum), [^3H]Muscimol
Neuropeptide Y Y2 = biological target: T20, Neuropeptide Y Y2 (Homo sapiens, UniProt P49146); assay: off-target screen panel; assay type: binding; conditions: Human KAN-TS cells, [^125I]Peptide YY
T20 construct: purchased Eurofins Panlabs Discovery Services (Taiwan)
T20 sequence (P49146 whole entry): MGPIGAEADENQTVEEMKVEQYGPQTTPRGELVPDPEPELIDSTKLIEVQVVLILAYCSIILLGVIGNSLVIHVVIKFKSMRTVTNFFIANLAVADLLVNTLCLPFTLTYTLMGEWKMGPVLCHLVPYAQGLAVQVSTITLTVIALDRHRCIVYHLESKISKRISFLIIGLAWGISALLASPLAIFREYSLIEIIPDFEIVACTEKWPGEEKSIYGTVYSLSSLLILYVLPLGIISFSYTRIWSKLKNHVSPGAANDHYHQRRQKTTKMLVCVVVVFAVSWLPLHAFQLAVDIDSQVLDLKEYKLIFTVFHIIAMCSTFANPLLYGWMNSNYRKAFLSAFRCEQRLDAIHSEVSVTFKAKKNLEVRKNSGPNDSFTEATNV

Adenosine A3 = biological target: T21, Adenosine A3 (Homo sapiens, UniProt P0DMS8); assay: off-target screen panel; assay type: binding; conditions: Human recombinant, [^125I]AB-MECA
T21 construct: purchased Eurofins Panlabs Discovery Services (Taiwan)

[2] = biological target: T22, Serotonin (5-Hydroxytryptamine) 5-HT1A (Homo sapiens, UniProt P08908); assay: off-target screen panel; assay type: binding; conditions: Human recombinant, [^3H]8-OH-DPAT
T22 construct: purchased Eurofins Panlabs Discovery Services (Taiwan)

PDE7 = assay: In vitro autoradiography of rat brain sections with [^11C]MTP38; assay type: binding, Sprague-Dawley rats; conditions: [^11C]MTP38 2 nM, unlabeled MTP38 10 μM, MTP-X 4 μM, MT-3014 40 nM
Experimental: In vitro autoradiography was performed using 20-μm-thick fresh-frozen brain sections derived from Sprague-Dawley rats and rhesus monkeys. The sections were preincubated for 10 min in 50 mM Tris-HCl buffer (pH 7.4) at room temperature. These samples were then incubated for 60 min at room temperature in fresh buffer containing [^11C]MTP38 (2 nM) with or without unlabeled MTP38 (10 μM), MTP-X (4 μM), or MT-3014 (40 nM). The concentrations of MTP-X and MT-3014 were more than 400-fold of reported IC50 values of these agents. After the incubation, the brain sections were immersed twice in cold buffer for 3 min, dipped in cold distilled water for 10 s, and dried with warm airflow. Then the sections were contacted with imaging plates (BAS-MS2025, Fujifilm, Tokyo, Japan) for 60 min. The imaging plates were scanned with an imaging plate reader (BAS5000, Fujifilm, Tokyo, Japan), and the images were analyzed with the MultiGuage software (ver. 3.0, Fujifilm, Tokyo, Japan).

Thyroid Hormone = assay: off-target screen panel; assay type: binding; conditions: Rat liver, [^125I]Triiodothyronine

Compound: C[C@@H]1CC[C@H](C)N(c2nnc3c(N)ncc(C#N)n23)C1 (relative stereo) [MTP38, 8-amino-3-(2S*,5R*-dimethyl-1-piperidyl)-[1,2,4]triazolo[4,3-a]pyrazine-5-carbonitrile]
- inhibition at 1 µM (Histamine H1): -20%
- inhibition at 1 µM (PDE6): < 50%
- IC50 (PDE7A): 9.81 nM
- inhibition at 1 µM (PDE11A4): < 50%
- inhibition at 1 µM (PDE3A): < 50%
- inhibition at 1 µM (PDE8A1): < 50%
- inhibition at 1 µM (PDE9A2): < 50%
- Ki (PDE7B; from IC50 1.21 nM, [S] 100 nM, Km 30–70 nM, read-out: Ki estimated by Cheng-Prusoff equation): 0.28 to 0.5 nM
- IC50 (PDE7B; human recombinant, geometric mean of three independent experiments): 1.21 nM
- inhibition at 1 µM (PDE5A): < 50%
- IC50 (PDE2A): > 100 nM and 114 nM
- inhibition at 1 µM (PDE1A): < 50%
- inhibition at 1 µM (Melatonin MT1): 7%
- Inhibition (%) at 1 μM (Phorbol Ester): -7%
- Inhibition (%) at 1 μM (Potassium Channel [KATP]): 5%
- inhibition at 1 µM (Adrenergic α1D): -3%
- Inhibition (%) at 1 μM (Sodium Channel, Site 2): 1%
- inhibition at 1 µM (Muscarinic M1): -20%
- inhibition at 1 µM (Dopamine D1): -14%
- inhibition at 1 µM (Estrogen ERα): -1%
- inhibition at 1 µM (Opiate μ (OP3, MOP)): 4%
- inhibition at 1 µM [1]: 4%
- inhibition at 1 µM (hERG potassium channel): 17%
- Inhibition (%) at 1 μM (GABAA, Muscimol, Central): -10%
- inhibition at 1 µM (Neuropeptide Y Y2): 6%
- inhibition at 1 µM (Adenosine A3): 10%
- inhibition at 1 µM [2]: -5%
- effect of blocker on striatal radioactivity of [^11C]MTP38 (PDE7): reduced the striatal radioactivity
- Inhibition (%) at 1 μM (Thyroid Hormone): 7%
